Like-named read-outs stand apart in the source and are kept apart here.

Data on two compounds can be found in publication PMC4549706, “Rational Design of Highly Potent and Slow-Binding Cytochrome bc1 Inhibitor as Fungicide by Computational Substitution Optimization” (Scientific Reports, 2015).

Test [1] relates to Pseudoperonospora cubensis (Berk. et Curt.). Kind of test: In vivo fungus growth inhibitory rate at 200 mg/L, downy mildew. The protocol:
[a] Compounds are named as “series number-site number plus substitution group number” a: -F, b: -Cl, c:
-Br, d: -NO2, e: -CH3, f: -CF3, g: -OCH3, h: -OH, i: -NH2, j: -COOH.
[b] Substitution number and group.
[c] CH is “series 1” and N is “series 2”. […]
Table S2 Fungus growth inhibitory rate of target compounds (200 mg/L).
Comp. No. R X Sphaerotheca fuliginea Pseudoperonospora cubensis

The test system of a further test is P. cubensis. Kind of test: Field trial, cucumber naturally infected, downy mildew. Format: in vivo, Pseudoperonospora cubensis. Conditions: 7th day. The protocol:
To further study the potential of compound 18 against powdery mildew and downy mildew, field experiments were conducted during the growing season of summer squash and cucumber. The summer squash plants at a fruiting stage naturally infected by S. fuliginea were used. […] Almost no lesions were observed on the leaves of summer squash. […] Lesions on the leaves of control plants, however, expanded quickly, and intense fungal hyphae could be observed. The curative effect is approximately 64.85% for the AZ-treated (93.75 g.ai/ha) summer squash. In addition, field trials for the treatment of downy mildew of cucumber were also performed. Cucumber plants naturally infected by P. cubensis were used for the study. Fungi on the leaves of control plants expanded quickly and lesions could be observed.
In the field trials, summer squash plants which is naturally infected by S. fuliginea and cucumber plants which is naturally infected by P. cubensis were used.
The disease index and control effect of compound 18 were calculated via the following […]
Disease index (%) = ∑(Ni × i)/(N × 9) × 100 […]
Each treatment took up in four plots and was distributed randomly in each […]eld. The relative control effects were assessed after the 7th day of foliar application 18. […]

On to `CO/C=C(/C(=O)OC)c1ccccc1Oc1cc(Oc2ccccc2C#N)ncn1` [AZ, Azoxystrobin, reference compound], for which the “Fungus growth inhibitory rate, Pseudoperonospora cubensis” value in test [1] is reported as 94%. Also, the “curative effect, downy mildew (P. cubensis)” value in the test on P. cubensis (75 g.ai/ha) was 59.59%.
Take `COC=C(C(=O)OC)c1ccccc1CSc1nc2cc(OC)ccc2s1` [Compound 18]: the “Fungus growth inhibitory rate, Pseudoperonospora cubensis” value is reported as “completely inhibited” in test [1] and 100% in test [1] (listed as Comp. 18). In the test with P. cubensis (60 g.ai/ha), the “curative effect, downy mildew (P. cubensis)” value is “approximately 82.59%”.
